Test results: patent publication US5409946A, “Isoxazole, isothiazole and pyrazole compounds that enhance cognitive function” (Abbott Laboratories, priority 1993, dated 1995)
Read-outs that look alike come from different tables or passages of the source.

Experiments:
muscarinic receptors = assay type: binding, rat; settings: Table 2
Protocol: The potencies of ligand binding at central muscarinic binding sites were determined by analysis of competition with the specific muscarinic receptor radioligand [^3 H]-quinuclidinyl benzilate ([^3 H]-QNB). […] Competition between various concentrations of putative nicotinic ligand compounds and 0.2 nM [^3 H]-QNB was performed at 25° C. in an assay volume of 1 mL. After 75 minutes, the bound radioligand was separated by vacuum filtration on Whatman GF/B glass fiber filters. Non-specific binding was defined as radioactivity remaining in the presence of 10 μM atropine. Competition curves were analyzed for Ki values as described above for binding to the nicotinic receptor.

[1] = system: anxiety induced by (-)-nicotine withdrawal; test: Elevated plus-maze 48 hours after withdrawal of 14-day chronic (-)-nicotine; assay type: in vivo, rats; settings: for TIME OPEN ARMS: chronic (-)-nicotine, mean ± SEM
From the text: The mouse elevated plus-maze is a conflict test that probes anxiolytic activity of test compounds (Lister, Psychopharmacology, 1987, 92:180). It is based on the fact that exposure of mice to an elevated open arm leads to an avoidance response considerably stronger than that evoked by exposure to an enclosed arm. Compounds may be tested for their ability to modify the avoidance response of the animal to the open arm maze. […] The effect of such potential anti-anxiety drugs may be tested further in a withdrawal challenge test.
Elevated Plus-Maze: The procedure originally described by Pellow et al., for rats was used, with minor modifications (Pellow et al., J. Neurosci. Meth., 14: 149, 1985). The apparatus consisted of two open arms (50×10 cm) and two enclosed arms (50×10×40 cm) extending from a central platform (10×10 cm). It was mounted on a base raising 50 cm above the floor. Light levels on the open and enclosed arms were similar. The animals were placed in the center of the maze and the time spent in the open arms and the total distance traveled by the rat were recorded automatically by a camera mounted above the apparatus, then analyzed by computer (Videomex™ software, Columbus Instruments, Columbus, Ohio). All animals used were naive to the apparatus. Animals were injected i.p. with saline or the different drug doses, and submitted to the test 30 minutes later. The test lasted 5 minutes, and the apparatus was thoroughly cleaned after removal of the animal.
The pumps were removed on day 14 and the animals were tested in the plus-maze 48 hours later, at the time when a state of withdrawal-induced anxiety was present in the rats. On the test day i.p. doses of either saline or the compound of Example 2 were administered to the animals 30 minutes before the test. Data (Table 13) represent the mean ±SEM time spent in the open arms of the plus-maze of 8-16 rats.

[2] = molecular target: neuronal nicotinic receptors; test: Displacement of [3H]-MCC or [3H]-cytisine from neuronal nicotinic receptors, whole rat brain membranes; assay type: binding
ethanol-induced narcosis = assay type: in vivo, male CD1 mice; settings: post-treatment
From the text: It is known that administration of ethanol to mice induces a state of narcosis in the animals. […] It is also known that certain compounds can modify the narcotic effect of ethanol in this model.
Animals: Male CD1 mice (Charles-River Co., Portage, Mich.) weighing 25-30 g were used in the experiments. Upon arrival they were caged in groups of 14 and allowed to acclimatize to laboratory conditions for one week before the beginning of the studies. They were fed standard rodent diet with food and water ad libitum.
Duration of sleep time: Mice received intraperitoneal (i.p.) injections of ethanol and either saline or one of the drug treatments. Upon loss of the righting reflex, a timer was started to record the duration of the sleep time until the reflex was recovered. Two types of experiments were conducted to study the effect of drugs before (pre-treatment) or after (post-treatment) the injection of the narcotic dose of ethanol. In the pre-treatment experiments the drugs were injected i.p., 15 minutes before ethanol. In the post-treatment experiments the drugs were administered i.p., 1 minute after the animals lost the righting reflex, which was approximately 5 minutes after administration of ethanol.
Drugs: Ethanol was prepared as a 20% v/v (16% w/v) solution in saline. Based on previous studies, a dose of 87 mmol/kg (4 g/kg) was selected as the narcotic dose. RO 15-4513, the benzodiazepine receptor inverse agonist discussed in the Background section, was purchased from RBI (Natick, Mass.). It was dissolved in saline solution with Tween-80 and ultrasonically homogenized for 3 minutes. […] The compounds of Examples 2 and 4, both novel neuronal nicotinic receptor ligands according to the present invention, were also dissolved in saline to the desired concentrations.

1-4 Hz slow wave EEG = 1-4 Hz slow wave EEG amplitude; assay type: in vivo, male Wistar rats

## Cc1cc([C@@H]2CCCN2C)on1.O=C(O)C(=O)O [Example 2, 3-Methyl-5-(1-methyl-2(S)-pyrrolidinyl)-isoxazole oxalate salt]
Muscarinic receptors
  Ki: 160000 nM
[1]; 48 h after withdrawal of chronic (-)-nicotine
  effect on time spent in the open arms: significant increase in the time spent in the open arms
[1]; challenge 0.19 μmol/kg i.p.
  TIME OPEN ARMS: 36.8 ± 12.5 s
[1]; challenge 0.62 μmol/kg i.p., **p < 0.05 against chronic nicotine, saline-challenged
  TIME OPEN ARMS: 73.6 ± 7.7 s
[1]; challenge 1.9 μmol/kg i.p.
  TIME OPEN ARMS: 43.1 ± 10.1 s
[2]; Table 1, oxalate salt, read-out: Nicotinic Receptor Ki
  Ki: 5 nM
[2]; Table 2, read-out: Nicotinic Ki
  Ki: 5 nM
ethanol-induced narcosis; 0.062 μmol/kg i.p.
  Sleeping time: 91 ± 20 % of controls
ethanol-induced narcosis; 0.19 μmol/kg i.p.
  Sleeping time: 68 ± 15 % of controls
ethanol-induced narcosis; 0.62 μmol/kg i.p.
  Sleeping time: 51 ± 8 % of controls
ethanol-induced narcosis; i.p., p<0.05, one-tailed t test
  effect of post-treatment on ethanol-induced narcosis: significantly reduced
1-4 Hz slow wave EEG; 1.9 μmol/kg i.p.
  1-4 Hz amplitude: 27.3 ± 5.0 μVolts
1-4 Hz slow wave EEG; i.p.
  effect on low frequency (1-4 Hz) EEG slow-wave patterns: does not affect those patterns
